The record followed here is patent US11530244B2, “Cyclic polypeptides for PCSK9 inhibition” (priority 2018, dated 2022).

This assay has as its target human PCSK9 / human LDLR EGFa domain interaction (Homo sapiens (Human), UniProt Q8NBP7). Description: TR-FRET assay of inhibition of the PCSK9-LDLR protein-protein interaction. In kind it is binding. Conditions: TR-FRET, 20 nM human PCSK9, 20 nM human LDLR EGFa domain, 2 hours room temperature; read-out: IC50. The procedure: A time-resolved fluorescence resonance energy (TR-FRET) assay was used to measure inhibition of the PCSK9-LDLR protein-protein interaction. Briefly, 20 nM avitag-biotinylated human PCSK9 was incubated with 20 nM his-tagged human LDLR EGFa domain in the presence of 5 nM LANCE Ulight Streptavidin (Perkin Elmer) and 5 nM europium-Anti-6×His (Perkin Elmer) for 2 hours covered at room temperature in buffer containing 50 mM HEPES, 150 mM NaCl, 5 mM CaCl2), 0.01% BSA and 0.01% Surfactant P20. Compounds were tested in dose-response and concentrations giving half-maximal inhibition calculated using a 4-parameter fit equation.
(In general: In TR-FRET formats the signal depends on donor and acceptor labels being close together.)

Starred links: 1 amine or outer side, 2 acyl side, 3 side chain; linkers in the order of their positions; H or OH if unused. Positions of bridges follow the written chain, without caps; N, C: chain ends. Non-standard residues stand in square brackets, D forms with d. Residues, ends and D or L forms follow the SMILES beside them. Trp(5-F) = N[C@@H](Cc1c[nH]c2ccc(F)cc12)C(=O)O; NMePhe(4-F) = CN[C@@H](Cc1ccc(F)cc1)C(=O)O; NMeW = CN[C@@H](Cc1c[nH]c2ccccc12)C(=O)O; mXylylene = c1cc(C[*:1])cc(C[*:2])c1; NMeY = CN[C@@H](Cc1ccc(O)cc1)C(=O)O; NMeL = CN[C@@H](CC(C)C)C(=O)O; αMeP = C[C@@]1(C(=O)O)CCCN1; NMeS = CN[C@@H](CO)C(=O)O; NMeA = CN[C@@H](C)C(=O)O; Orn = NCCC[C@H](N)C(=O)O; Nva = CCC[C@H](N)C(=O)O; Mpa = O=C(O)CCS; Sar = CNCC(=O)O

Chain of human PCSK9 / human LDLR EGFa domain interaction (Q8NBP7 153-692): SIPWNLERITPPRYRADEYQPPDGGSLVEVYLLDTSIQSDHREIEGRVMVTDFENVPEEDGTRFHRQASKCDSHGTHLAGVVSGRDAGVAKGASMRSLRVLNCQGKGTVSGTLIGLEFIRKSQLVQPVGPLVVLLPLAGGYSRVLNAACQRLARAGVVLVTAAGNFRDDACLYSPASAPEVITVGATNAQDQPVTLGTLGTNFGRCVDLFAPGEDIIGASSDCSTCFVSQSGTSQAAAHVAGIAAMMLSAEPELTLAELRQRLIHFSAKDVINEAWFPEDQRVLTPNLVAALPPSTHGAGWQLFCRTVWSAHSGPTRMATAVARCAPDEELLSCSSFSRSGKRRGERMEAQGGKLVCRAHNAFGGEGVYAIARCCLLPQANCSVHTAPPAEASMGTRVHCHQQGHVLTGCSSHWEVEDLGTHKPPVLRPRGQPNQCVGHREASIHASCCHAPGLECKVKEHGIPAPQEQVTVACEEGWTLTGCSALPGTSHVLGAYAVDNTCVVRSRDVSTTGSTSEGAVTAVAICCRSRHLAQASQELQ
Chain of human PCSK9 / human LDLR EGFa domain interaction (Q8NBP7 31-152 partner): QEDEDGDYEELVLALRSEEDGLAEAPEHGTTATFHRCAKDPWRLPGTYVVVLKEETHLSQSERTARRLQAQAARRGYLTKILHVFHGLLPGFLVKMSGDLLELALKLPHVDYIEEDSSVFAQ

For the compound `C[C@H]1C(=O)N(C)[C@@H](Cc2ccc(O)cc2)C(=O)N2CCC[C@H]2C(=O)N[C@H](C(N)=O)CSCc2cccc(c2)CSCCC(=O)N[C@@H](CCCCN)C(=O)N(C)CC(=O)N(C)[C@@H](Cc2c[nH]c3ccccc23)C(=O)N[C@@H](Cc2c[nH]c3ccccc23)C(=O)N[C@@H](CC(=O)O)C(=O)N1C` [Compound 015] ([Mpa]K[Sar][NMeW]WD[NMeA][NMeY]PC-NH2; linker 1-10 via mXylylene), the IC50 was 1 to 12.1 µM. On to `C[C@H]1NC(=O)[C@H](Cc2c[nH]c3ccc(F)cc23)NC(=O)[C@H](Cc2c[nH]c3ccc(F)cc23)NC(=O)CNC(=O)[C@H](CCCCN)NC(=O)CCSCc2cccc(c2)CSC[C@@H](C(N)=O)NC(=O)[C@]2(C)CCCN2C(=O)[C@H](Cc2ccc(O)cc2)NC(=O)[C@H](Cc2cnc[nH]2)NC1=O` [Compound 032] ([Mpa]KG[Trp(5-F)][Trp(5-F)][dA]HY[αMeP]C-NH2; linker 1-10 via mXylylene), for which the half-inhibitory concentration (IC50) is 0.1 to 1 µM. As for `C[C@H]1NC(=O)[C@H](CC(=O)O)NC(=O)[C@H](Cc2c[nH]c3ccc(F)cc23)NC(=O)[C@H](Cc2c[nH]c3ccc(F)cc23)NC(=O)CNC(=O)[C@H](CCCCN)NC(=O)CCSCc2cccc(c2)CSC[C@@H](C(N)=O)NC(=O)[C@]2(C)CCCN2C(=O)[C@H](Cc2ccc(O)cc2)NC1=O` [Compound 033] ([Mpa]KG[Trp(5-F)][Trp(5-F)]D[dA]Y[αMeP]C-NH2; linker 1-10 via mXylylene), the figure is 1 to 12.1 µM. As for `COc1ccc(C[C@@H]2NC(=O)[C@@H](CC(C)C)NC(=O)[C@H](CC(C)C)NC(=O)CCSCc3cccc(c3)CSC[C@@H](C(N)=O)NC(=O)[C@]3(C)CCCN3C(=O)[C@H](Cc3ccc(OC)cc3)NC(=O)[C@H]([C@@H](C)OC)NC(=O)[C@H](CC(C)C)N(C)C(=O)[C@H](Cc3ccc(OC)cc3)NC2=O)cc1` [Compound 037] ([Mpa]L[dL]Y(Me)Y(Me)[NMeL]T(Me)Y(Me)[αMeP]C-NH2; linker 1-10 via mXylylene), the figure is 0.1 to 1 µM; as for `CCC[C@H](NC(C)=O)C(=O)N[C@@H](Cc1c[nH]cn1)C(=O)N(C)[C@@H](Cc1ccc(F)cc1)C(=O)N[C@H]1CSCc2cccc(c2)CSC[C@@H](C(N)=O)NC(=O)[C@@H]2CCCN2C(=O)[C@H](Cc2ccc(O)cc2)NC(=O)[C@H](Cc2c[nH]cn2)NC(=O)[C@H](CC(=O)O)NC(=O)[C@H](Cc2c[nH]c3ccc(F)cc23)NC(=O)[C@H](Cc2c[nH]c3ccc(F)cc23)NC(=O)CNC(=O)[C@H](CCCCN)NC1=O` [Compound 143] (Ac-[Nva]H[NMePhe(4-F)]CKG[Trp(5-F)][Trp(5-F)]DHYPC-NH2; linker 4-13 via mXylylene), 21 to 50 µM; as for `CCC[C@H](NC(C)=O)C(=O)N[C@H](Cc1c[nH]cn1)C(=O)N(C)[C@@H](Cc1ccc(F)cc1)C(=O)N[C@H]1CSCc2cccc(c2)CSC[C@@H](C(N)=O)NC(=O)[C@@H]2CCCN2C(=O)[C@H](Cc2ccc(O)cc2)NC(=O)[C@H](Cc2c[nH]cn2)NC(=O)[C@H](CC(=O)O)NC(=O)[C@H](Cc2c[nH]c3ccc(F)cc23)NC(=O)[C@H](Cc2c[nH]c3ccc(F)cc23)NC(=O)CNC(=O)[C@H](CCCCN)NC1=O` [Compound 144] (Ac-[Nva][dH][NMePhe(4-F)]CKG[Trp(5-F)][Trp(5-F)]DHYPC-NH2; linker 4-13 via mXylylene), 1 to 12.1 µM. The result for `CCC[C@H](NC(C)=O)C(=O)N(C)[C@@H](CO)C(=O)N[C@@H](CCCCN)C(=O)N[C@H]1CSCc2cccc(c2)CSC[C@@H](C(N)=O)NC(=O)[C@@H]2CCCN2C(=O)[C@H](Cc2ccc(O)cc2)NC(=O)[C@H](Cc2c[nH]cn2)NC(=O)[C@H](CC(=O)O)NC(=O)[C@H](Cc2c[nH]c3ccc(F)cc23)NC(=O)[C@H](Cc2c[nH]c3ccc(F)cc23)NC(=O)CNC(=O)[C@H](CCCCN)NC1=O` [Compound 145] (Ac-[Nva][NMeS]KCKG[Trp(5-F)][Trp(5-F)]DHYPC-NH2; linker 4-13 via mXylylene) reads 1 to 12.1 µM. With `CC(=O)N[C@@H](Cc1cnc[nH]1)C(=O)N(C)[C@@H](Cc1ccc(F)cc1)C(=O)N[C@H]1CSCc2cccc(c2)CSC[C@@H](C(N)=O)NC(=O)[C@@H]2CCCN2C(=O)[C@H](Cc2ccc(O)cc2)NC(=O)[C@H](Cc2cnc[nH]2)NC(=O)[C@H](CC(=O)O)NC(=O)[C@H](Cc2c[nH]c3ccc(F)cc23)NC(=O)[C@H](Cc2c[nH]c3ccc(F)cc23)NC(=O)CNC(=O)[C@H](CCCCN)NC1=O` [Compound 146] (Ac-H[NMePhe(4-F)]CKG[Trp(5-F)][Trp(5-F)]DHYPC-NH2; linker 3-12 via mXylylene), the IC50 was 0.0001 to 0.1 µM. The result for `CC(=O)N(C)[C@@H](Cc1ccc(F)cc1)C(=O)N[C@H]1CSCc2cccc(c2)CSC[C@@H](C(N)=O)NC(=O)[C@@H]2CCCN2C(=O)[C@H](Cc2ccc(O)cc2)NC(=O)[C@H](Cc2cnc[nH]2)NC(=O)[C@H](CC(=O)O)NC(=O)[C@H](Cc2c[nH]c3ccc(F)cc23)NC(=O)[C@H](Cc2c[nH]c3ccc(F)cc23)NC(=O)CNC(=O)[C@H](CCCCN)NC1=O` [Compound 147] (Ac-[NMePhe(4-F)]CKG[Trp(5-F)][Trp(5-F)]DHYPC-NH2; linker 2-11 via mXylylene) reads 0.1 to 1 µM; that for `CC(=O)N[C@H]1CSCc2cccc(c2)CSC[C@@H](C(N)=O)NC(=O)[C@@H]2CCCN2C(=O)[C@H](Cc2ccc(O)cc2)NC(=O)[C@H](Cc2cnc[nH]2)NC(=O)[C@H](CC(=O)O)NC(=O)[C@H](Cc2c[nH]c3ccc(F)cc23)NC(=O)[C@H](Cc2c[nH]c3ccc(F)cc23)NC(=O)CNC(=O)[C@H](CCCCN)NC1=O` [Compound 148] (Ac-CKG[Trp(5-F)][Trp(5-F)]DHYPC-NH2; linker 1-10 via mXylylene), 0.1 to 1 µM; that for `NCCCC[C@@H]1NC(=O)CCCCn2cc(nn2)CCC[C@@H](C(N)=O)NC(=O)[C@@H]2CCCN2C(=O)[C@H](Cc2ccc(O)cc2)NC(=O)[C@H](Cc2c[nH]cn2)NC(=O)[C@H](CC(=O)O)NC(=O)[C@H](Cc2c[nH]c3ccc(F)cc23)NC(=O)[C@H](Cc2c[nH]c3ccc(F)cc23)NC(=O)CNC1=O` [Compound 153], 1 to 12.1 µM. The result for `NCCCC[C@@H]1NC(=O)CCCCCn2cc(nn2)CCC[C@@H](C(N)=O)NC(=O)[C@@H]2CCCN2C(=O)[C@H](Cc2ccc(O)cc2)NC(=O)[C@H](Cc2c[nH]cn2)NC(=O)[C@H](CC(=O)O)NC(=O)[C@H](Cc2c[nH]c3ccc(F)cc23)NC(=O)[C@H](Cc2c[nH]c3ccc(F)cc23)NC(=O)CNC1=O` [Compound 154] reads 1 to 12.1 µM; that for `C[C@@H]1NC(=O)[C@H](CCCCN)NC(=O)CCSCc2cccc(c2)CSC[C@@H](C(N)=O)NC(=O)[C@@H]2CCCN2C(=O)[C@H](Cc2ccc(O)cc2)NC(=O)[C@H](Cc2cnc[nH]2)NC(=O)[C@H](CC(=O)O)NC(=O)[C@H](Cc2c[nH]c3ccc(F)cc23)NC(=O)[C@H](Cc2c[nH]c3ccc(F)cc23)NC1=O` [Compound 156] ([Mpa]KA[Trp(5-F)][Trp(5-F)]DHYPC-NH2; linker 1-10 via mXylylene), 1 to 12.1 µM. As for `NCCCC[C@@H]1NC(=O)CCSCc2cccc(c2)CSC[C@@H](C(N)=O)NC(=O)[C@@H]2CCCN2C(=O)[C@H](Cc2ccc(O)cc2)NC(=O)[C@@H](Cc2cnc[nH]2)NC(=O)[C@H](CC(=O)O)NC(=O)[C@H](Cc2c[nH]c3ccc(F)cc23)NC(=O)[C@H](Cc2c[nH]c3ccc(F)cc23)NC(=O)CNC1=O` [Compound 163] ([Mpa]KG[Trp(5-F)][Trp(5-F)]D[dH]YPC-NH2; linker 1-10 via mXylylene), the figure is 21 to 50 µM; as for `NCCCC[C@@H]1NC(=O)CCSCc2cccc(c2)CSC[C@@H](C(N)=O)NC(=O)[C@@H]2CCCN2C(=O)[C@@H](Cc2ccc(O)cc2)NC(=O)[C@H](Cc2cnc[nH]2)NC(=O)[C@H](CC(=O)O)NC(=O)[C@H](Cc2c[nH]c3ccc(F)cc23)NC(=O)[C@H](Cc2c[nH]c3ccc(F)cc23)NC(=O)CNC1=O` [Compound 164] ([Mpa]KG[Trp(5-F)][Trp(5-F)]DH[dY]PC-NH2; linker 1-10 via mXylylene), 21 to 50 µM. As to `CC(=O)N[C@H]1CSCc2cccc(c2)CSC[C@@H](C(N)=O)NC(=O)[C@@H]2CCCN2C(=O)[C@H](Cc2ccc(O)cc2)NC(=O)[C@H](Cc2c[nH]cn2)NC(=O)[C@H](CC(=O)O)NC(=O)[C@H](Cc2c[nH]c3ccc(F)cc23)NC(=O)[C@H](Cc2c[nH]c3ccccc23)NC(=O)CNC(=O)[C@H](CCCCN)NC1=O` [Compound 176] (Ac-CKGW[Trp(5-F)]DHYPC-NH2; linker 1-10 via mXylylene), the IC50 was in the range of 21 to 50 µM.

On to `CC(=O)N[C@H]1CSCc2cccc(c2)CSC[C@@H](C(N)=O)NC(=O)[C@@H]2CCCN2C(=O)[C@H](Cc2ccc(O)cc2)NC(=O)[C@H](Cc2cnc[nH]2)NC(=O)[C@H](CC(=O)O)NC(=O)[C@H](Cc2c[nH]c3ccccc23)NC(=O)[C@H](Cc2c[nH]c3ccc(F)cc23)NC(=O)CNC(=O)[C@H](CCCCN)NC1=O` [Compound 177] (Ac-CKG[Trp(5-F)]WDHYPC-NH2; linker 1-10 via mXylylene), for which the IC50 lay within 21 to 50 µM.

Turning to `CC(=O)N[C@H]1CCC(=O)NCCC[C@@H](C(N)=O)NC(=O)[C@@H]2CCCN2C(=O)[C@H](Cc2ccc(O)cc2)NC(=O)[C@H](Cc2c[nH]cn2)NC(=O)[C@H](CC(=O)O)NC(=O)[C@H](Cc2c[nH]c3ccc(F)cc23)NC(=O)[C@H](Cc2c[nH]c3ccc(F)cc23)NC(=O)CNC(=O)[C@H](CCCCN)NC1=O` [Compound 179] (Ac-EKG[Trp(5-F)][Trp(5-F)]DHYP[Orn]-NH2; lactam 1-10), the IC50 fell in the range of 1 to 12.1 µM. Take `NCCCC[C@@H]1NC(=O)CCCCn2cc(nn2)CC[C@@H](C(N)=O)NC(=O)[C@@H]2CCCN2C(=O)[C@H](Cc2ccc(O)cc2)NC(=O)[C@H](Cc2c[nH]cn2)NC(=O)[C@H](CC(=O)O)NC(=O)[C@H](Cc2c[nH]c3ccc(F)cc23)NC(=O)[C@H](Cc2c[nH]c3ccc(F)cc23)NC(=O)CNC1=O` [Compound 185]: the IC50 lay within 0.0001 to 0.1 µM.

Usually IC50 stands for the point on the concentration scale where inhibition reaches its midpoint.
